Laboratory results reported in patent US7446091B2, “Methods and preparations for curing clinically ill patients” (Novo Nordisk A/S, priority 2000, dated 2008).
Where “and” joins values, the source holds several entries; their conditions need not be identical. Equal entries are not always repeated.

Columns and labels:
[1] = tested on: patients treated in the ICU; experiment: Example 1: prospective clinical study, weekly EMG screening for CIPNP in long-stay ICU patients; format: in vivo, human; conditions: for CIPNP-free time on the ICU: long-stay patients
Protocol: Between Feb. 2 and Apr. 25, 2000, 400 patients were included in the study. […] All other treatments, including feeding regimens, were according to standing orders currently applied within the ICU. Exclusion criteria were age <18y, pregnancy and not being intubated at admission.
When patients were still treated in the ICU after 7 days, a weekly EMG examination was performed to screen for the presence of CIPNP. The EMGs were always interpreted by the same expert in electrophysiology. In order to accurately assess ICU stay, which is often determined by other factors than the patient's condition—e.g. bed availability on the wards—“end of ICU stay” was defined as the day on which the attending physician considers the patient to be “ready for discharge”.

[2] = tested on: mechanically ventilated, adult patients admitted to the intensive care unit (ICU); experiment: Example 2: glycemia control (whole blood glucose); format: in vivo
Protocol: A blood sample was taken upon ICU admission and daily at 06:00 h until discharge from ICU or death. On-admission and daily morning, whole blood glucose level as well as daily maximal and minimal glycemia were analysed. Analyses on the 06:00 h sample also included clinical chemistry, hematology and markers of inflammation.

## insulin
[1]; intensive insulin group
  Long-stay ICU patients with a positive EMG for CIPNP (% of the long stayers): 39%
  Number of positive EMGs for CIPNP per patient (mean ± SD): 0.9±1.8
  Number of positive EMGs for CIPNP per patient (median): zero
  CIPNP-free time on the ICU: 2.1±1.8 weeks
[1]; intensive insulin group, 38 long-stay patients
  Long-stay ICU patients with a positive EMG for CIPNP at any time during the ICU stay, number: Fifteen
[1]; intensive vs restrictive insulin schedule, P=0.4
  ICU-mortality, difference between the two treatment groups: not detectably different
[1]; restrictive insulin group
  CIPNP-free time on the ICU: 1.1±1.2 weeks
  Long-stay ICU patients with a positive EMG for CIPNP (% of the long stayers): 67%
  Number of positive EMGs for CIPNP per patient (mean ± SD): 1.8±2.1
  Number of positive EMGs for CIPNP per patient (median): 1
[1]; restrictive insulin group, 45 long-stay patients
  Long-stay ICU patients with a positive EMG for CIPNP at any time during the ICU stay, number: 30
[2]; IIS
  Mean 06:00 h blood glucose level when on insulin (mmol/L) (mean ± SD): 5.7 ± 1.0 mmol/L
  Patients who never exceeded 6.1 mmol/L after treatment initiation: 48%
  Patients who occasionally peaked over 8.4 mmol/L: 17%
  Patients with blood glucose levels that failed to go below 6.1 mmol/L within 48 h: 0.1%
[2]; IIS and RIS
  Consequences of hypoglycemia events: never induced serious symptoms such as hemodynamic deterioration or epilepsia
[2]; IIS, N = 765
  Mean 06:00 h blood glucose level (mmol/L) (mean ± SD): 5.8 ± 1.0 mmol/L and 5.7 ± 1.0 mmol/L
[2]; RIS
  Mean 06:00 h blood glucose level when on insulin (mmol/L) (mean ± SD): 9.6 ± 1.8 mmol/L
  Patients in whom glycemia transiently fell below 2.3 mmol/L, number: 6
[2]; RIS, N = 783
  Mean 06:00 h blood glucose level (mmol/L) (mean ± SD): 8.5 ± 1.8 mmol/L
